Test results reported in patent US5935829A, “Mutation assays involving blood cells that metabolize toxic substances” (priority 1992, dated 1999).
Read-outs that look alike come from different tables or passages of the source.

Experiments:
AHH-1 cells [1] = test system: AHH-1 cells
in vitro = settings: human, ahh-1 cells, RELATIVE SURVIVAL; for viability at 48 h, 25 µM: 25 μM × 48 hours; for viability at 48 h, 5000 µM: 5 mM × 48 hours; for viability at 48 h, 14000 µM: 14 mM × 48 hours; for viability at 48 h, 28000 µM: 28 mM × 48 hours; for viability at 48 h, 300 µM: 300 μM × 48 hours
[2] = test system: 6-TG resistant AHH-1 clones; assay: Plating efficiency of clones resistant to 6-TG; format: cell-based, human; settings: for Plating Efficiency with 6-TG & 2000 c/w: with 2000 wild type cells per well
wild type AHH-1 cells = assay: Plating efficiency of wild type cells with 6-TG; format: cell-based, human
AHH-1 cells [3] = assay: Cell clumping at concentrations of 6-TG in microtiter wells; format: cell-based, human
Procedure: When applied at relatively high concentrations to a colony of cells, 6-thioguanine (6-TG) causes the cells to clump together, rendering it difficult or impossible for live mutant cells to survive and create colonies. […] […]. Subsequent routine work was done using 0.5 μg/ml of 6-TG.

[4] = test system: 6-TG resistant AHH-1 cells
[5] = test system: AHH activity of AHH-1 cells; format: cell-based, human
Procedure: The quantity of 3-hydroxy BaP was measured by fluorescent intensity activated by a light wavelength of 396 nm and measured at 522 nm using a spectrofluorimeter (Farrand Model Mk-1, Valhalla, N.Y.).
After growth of the cells in culture medium with gentamycin and kanamycin, the cells were plated in microtiter plates at a density of about 0.2 cells per well. Colonies were isolated and characterized for BaP-induced growth inhibition. A total of 47 colonies were isolated and contacted with 40 uM BaP. In its normal state, BaP is not highly cytotoxic or mutagenic; however, if metabolized by oxidative activity into one or more epoxides or phenols, the metabolites tend to be toxic and mutagenic.
6-TG resistant clones were characterized for AHH activity by measuring the rate of production of 3-OH benzopyrene, a fluorescent metabolite of BaP which is created by AHH activity.

[6] = 25 μM × 48 hours, induction none
[7] = 50 μM × 48 hours, induction BNF
[8] = 50 μM × 48 hours, induction none
[9] = 100 μM × 48 hours, induction BNF
[10] = 100 μM × 48 hours, induction none
[11] = 75 μM × 48 hours, induction none
[12] = 1 μM × 48 hours, induction CEPE
[13] = 3 μM × 48 hours, induction CEPE
[14] = 10 μM × 48 hours, induction CEPE
[15] = 25 μM × 4.8 hours, induction CEPE
[16] = 50 μM × 48 hours, induction CEPE & BNF
[17] = 10 μM × 48 hours, induction BNF
[18] = 600 μM × 48 hours, induction none

Cc1cccc2c1ccc1ccccc12 [1MP, 1-methylphenanthrene]
MUTANT FRACTION × 10^6, MEAN ± STD.DEV. (AHH-1 cells [1]; 25 μM × 48 hours, induction BNF): 3.6 ± 1.2 × 10^6
MUTANT FRACTION × 10^6, MEAN ± STD.DEV. (AHH-1 cells [1]; [6]): 4.4 ± 1.2 × 10^6
MUTANT FRACTION × 10^6, MEAN ± STD.DEV. (AHH-1 cells [1]; [7]): 8.9 ± 1.5 × 10^6
MUTANT FRACTION × 10^6, MEAN ± STD.DEV. (AHH-1 cells [1]; [8]): 4.1 ± 1.2 × 10^6
MUTANT FRACTION × 10^6, MEAN ± STD.DEV. (AHH-1 cells [1]; [9]): 7.8 ± 1.4 × 10^6
MUTANT FRACTION × 10^6, MEAN ± STD.DEV. (AHH-1 cells [1]; [10]): 7.8 ± 1.1 × 10^6
viability at 48 h, 25 µM (in vitro; induction BNF): 47%
viability at 48 h, 25 µM (in vitro; induction none): 54%
viability at 48 h, 50 µM (in vitro; [7]): 35%
viability at 48 h, 50 µM (in vitro; [8]): 38%
viability at 48 h, 100 µM (in vitro; [9]): 29%
viability at 48 h, 100 µM (in vitro; [10]): 31%

CC(=O)Nc1ccc2c(c1)Cc1ccccc1-2 [2AAF, 2-acetoaminofluorene]
MUTANT FRACTION × 10^6, MEAN ± STD.DEV. (AHH-1 cells [1]; [6]): 4.8 ± 1.2 × 10^6
MUTANT FRACTION × 10^6, MEAN ± STD.DEV. (AHH-1 cells [1]; [8]): 3.8 ± 1.1 × 10^6
MUTANT FRACTION × 10^6, MEAN ± STD.DEV. (AHH-1 cells [1]; [11]): 6.9 ± 1.7 × 10^6
MUTANT FRACTION × 10^6, MEAN ± STD.DEV. (AHH-1 cells [1]; [10]): 7.7 ± 0.7 × 10^6
viability at 48 h, 25 µM (in vitro; induction none): 73%
viability at 48 h, 50 µM (in vitro; [8]): 50%
viability at 48 h, 75 µM (in vitro; [11]): 37%
viability at 48 h, 100 µM (in vitro; [10]): 33%

Nc1nc2nc[nH]c2c(=S)[nH]1 [6-TG, 6-thioguanine]
Plating Efficiency in 5 μg/ml 6-TG at 2 cells/well ([2]; clone BP-3): 0.24
Plating Efficiency with 6-TG & 2000 c/w ([2]; clone BP-3): 0.23
Plating Efficiency in 5 μg/ml 6-TG at 2 cells/well ([2]; clone BP-4): 0.34
Plating Efficiency with 6-TG & 2000 c/w ([2]; clone BP-4): 0.34
Plating Efficiency in 5 μg/ml 6-TG at 2 cells/well ([2]; clone BP-5): 0.21
Plating Efficiency with 6-TG & 2000 c/w ([2]; clone BP-5): 0.20
Plating Efficiency in 5 μg/ml 6-TG at 2 cells/well ([2]; clone BP-6): 0.26
Plating Efficiency with 6-TG & 2000 c/w ([2]; clone BP-6): 0.34
Plating Efficiency in 5 μg/ml 6-TG at 2 cells/well ([2]; clone BP-7): 0.06
Plating Efficiency with 6-TG & 2000 c/w ([2]; clone BP-7): 0.07
Plating Efficiency in 5 μg/ml 6-TG at 2 cells/well (wild type AHH-1 cells): < 10^-3
Plating Efficiency with 6-TG & 2000 c/w (wild type AHH-1 cells; 2000 c/w): 10^-5
cells per microtiter well that could be assayed (AHH-1 cells [3]; 0.5 μg/ml 6-TG): ≥ 20,000 cells per microtiter well
cells per microtiter well that could be assayed without clumping (AHH-1 cells [3]; 5 μg/ml 6-TG): about 2,000 cells per microtiter well
sensitivity to toxic effects of 6-TG ([4]; 6-TG resistant mutant AHH-1 population, up to 5 μg/ml, about two cells per well): not sensitive
growth rates with and without 6-TG ([4]; seven 6-TG resistant clones): comparable growth rates

C1=Cc2cc3cccc4ccc5ccc1c2c5c43 [CEPE, cyclopenteno(c,d)pyrene]
induction of AHH activity [5]: inducers
MUTANT FRACTION × 10^6, MEAN ± STD.DEV. (AHH-1 cells [1]; [12]): 71 ± 6 × 10^6
MUTANT FRACTION × 10^6, MEAN ± STD.DEV. (AHH-1 cells [1]; [13]): 78 ± 9 × 10^6
MUTANT FRACTION × 10^6, MEAN ± STD.DEV. (AHH-1 cells [1]; [14]): 22 ± 2 × 10^6
MUTANT FRACTION × 10^6, MEAN ± STD.DEV. (AHH-1 cells [1]; [15]): 34 ± 4 × 10^6
MUTANT FRACTION × 10^6, MEAN ± STD.DEV. (AHH-1 cells [1]; 25 μM × 48 hours, induction CEPE & BNF): 74 ± 7 × 10^6
MUTANT FRACTION × 10^6, MEAN ± STD.DEV. (AHH-1 cells [1]; [16]): 64 ± 7 × 10^6
viability at 48 h, 1 µM (in vitro; [12]): 61%
viability at 48 h, 3 µM (in vitro; [13]): 63%
viability at 48 h, 10 µM (in vitro; [14]): 59%
viability at 4.8 h, 25 µM (in vitro; [15]): 54%
viability at 48 h, 25 µM (in vitro; induction CEPE & BNF): 34%
viability at 48 h, 50 µM (in vitro; [16]): 27%

CN(C)N=O [DMN, dimethylnitrosamine]
MUTANT FRACTION × 10^6, MEAN ± STD.DEV. (AHH-1 cells [1]; 5 mM × 48 hours, induction BNF): 4.0 ± 0.7 × 10^6
MUTANT FRACTION × 10^6, MEAN ± STD.DEV. (AHH-1 cells [1]; 5 mM × 48 hours, induction none): 3.5 ± 0.7 × 10^6
MUTANT FRACTION × 10^6, MEAN ± STD.DEV. (AHH-1 cells [1]; 14 mM × 48 hours, induction BNF): 8.0 ± 2.0 × 10^6
MUTANT FRACTION × 10^6, MEAN ± STD.DEV. (AHH-1 cells [1]; 14 mM × 48 hours, induction none): 3.5 ± 0.7 × 10^6
MUTANT FRACTION × 10^6, MEAN ± STD.DEV. (AHH-1 cells [1]; 28 mM × 48 hours, induction BNF): 8.6 ± 2.1 × 10^6
MUTANT FRACTION × 10^6, MEAN ± STD.DEV. (AHH-1 cells [1]; 28 mM × 48 hours, induction none): 4.1 ± 1.3 × 10^6
viability at 48 h, 5000 µM (in vitro; induction BNF): 112%
viability at 48 h, 5000 µM (in vitro; induction none): 98%
viability at 48 h, 14000 µM (in vitro; induction BNF): 100%
viability at 48 h, 14000 µM (in vitro; induction none): 92%
viability at 48 h, 28000 µM (in vitro; induction BNF): 87%
viability at 48 h, 28000 µM (in vitro; induction none): 81%

CCOS(C)(=O)=O [EMS, ethyl methanesulfonate]
MUTANT FRACTION × 10^6, MEAN ± STD.DEV. (AHH-1 cells [1]; 59 μM × 24 hours): 6.3 ± 1.3 × 10^6
MUTANT FRACTION × 10^6, MEAN ± STD.DEV. (AHH-1 cells [1]; 100 μM × 24 hours): 20 ± 5 × 10^6
viability at 24 h, 59 µM (in vitro; 59 μM × 24 hours): 48%
viability at 24 h, 100 µM (in vitro; 100 μM × 24 hours): 36%

c1ccc2c(c1)-c1cccc3cccc-2c13 [Fla, fluoranthene]
RELATIVE SURVIVAL (AHH-1 cells [1]; human, ahh-1 cells, 48 h, 40 µM): 0.70
viability at 48 h, 10 µM (in vitro): 105%
viability at 48 h, 20 µM (in vitro): 93%
viability at 48 h, 40 µM (in vitro): 75%
viability at 48 h, 50 µM (in vitro): 67%
viability at 48 h, 100 µM (in vitro): 45%

C/C=C(/C)C(=O)O[C@H]1CCN2CC=C(COC(=O)[C@@](O)([C@H](C)OC)C(C)(C)O)[C@H]12 [LSCP, lasiocarpine]
MUTANT FRACTION × 10^6, MEAN ± STD.DEV. (AHH-1 cells [1]; [17]): 3.9 ± 1 × 10^6
MUTANT FRACTION × 10^6, MEAN ± STD.DEV. (AHH-1 cells [1]; [9]): 4.3 ± 1 × 10^6
MUTANT FRACTION × 10^6, MEAN ± STD.DEV. (AHH-1 cells [1]; [10]): 5.4 ± 0.6 × 10^6
MUTANT FRACTION × 10^6, MEAN ± STD.DEV. (AHH-1 cells [1]; 300 μM × 48 hours, induction BNF): 12.7 ± 2.1 × 10^6
MUTANT FRACTION × 10^6, MEAN ± STD.DEV. (AHH-1 cells [1]; 300 μM × 48 hours, induction none): 6.2 ± 1.3 × 10^6
MUTANT FRACTION × 10^6, MEAN ± STD.DEV. (AHH-1 cells [1]; [18]): 6.0 ± 1.4 × 10^6
viability at 48 h, 10 µM (in vitro; [17]): 103%
viability at 48 h, 100 µM (in vitro; [9]): 91%
viability at 48 h, 100 µM (in vitro; [10]): 130%
viability at 48 h, 300 µM (in vitro; induction BNF): 81%
viability at 48 h, 300 µM (in vitro; induction none): 89%
viability at 48 h, 600 µM (in vitro; [18]): 82%
